Test results: patent publication US12209089B1, “Pyrimido[1′,6′: 1,5]pyrazolo[4,3-c] [2,7] naphthyridines as CK2 inhibitors” (KING FAISAL UNIVERSITY, priority 2024, dated 2025)

How the values were obtained:
[1] = tested on: MDA-MB-231 (breast); experiment: In vitro cytotoxic activity (MTT) assay, MDA-MB-231; format: cell-based; conditions: Homo sapiens; MDA-MB-231 (breast) cells, 96 hours exposure; read-out: Cytotoxicity activity IC50 (50% inhibition of cell proliferation)
Procedure: (§1) Compounds 1-16 were screened for their in vitro cytotoxic activity utilizing a 3-(4,5-dimethyl-thiazol-2-yl)-2,5-diphenyltetrazolium bromide (MTT) assay against selected cancer human cell lines consisting of PC3 (prostate), HCT116 (colon), A375 (melanoma), H1299 (lung), MIAPaCa-2 (pancreas), HL60 (leukemia), MCF7 (breast), MDA-MB-231 (breast) (T. Mosmann, J. Immunol. Meth., 1983, 65, 55-63). The cells were cultured at 37° C. in RMPI1640 medium supplemented with 10% fetal bovine serum, 50 IU/mL penicillin, and 50 μg/mL streptomycin in a 5% CO2 incubator. All cells were sub-cultured 3 times/week by trypsinisation. Viable cells were seeded and allowed to adhere for 12 hours before a test drug was added in 96-well plates at an initial density of 1.0×10^5 cells/mL. Tumor cell lines were separately exposed to various concentrations of the tested compounds followed by incubation at a temperature of 37° C. during 96 hours inside a medium of fresh RMPI 1640. Cells were subsequently incubated at 37° C. using MTT at 0.5 mg/mL during 4 hours. After removal of supernatant, formazan crystals were dissolved in isopropanol and the optical density was measured at 570 nm. CX-4945 was used as a positive control.

[2] = tested on: A375 (melanoma); experiment: In vitro cytotoxic activity (MTT) assay, A375; format: cell-based; conditions: Homo sapiens, A-375; A375 (melanoma) cells, 96 hours exposure; read-out: Cytotoxicity activity IC50 (50% inhibition of cell proliferation)
Procedure: as §1

[3] = target: T1, recombinant human CK2 (holoenzyme) (Homo sapiens, UniProt P68400); experiment: CK2 Kinase Assay (33P-ATP, filter plate); format: biochemical; conditions: recombinant human CK2, 10 min at 30° C., eight concentrations; read-out: protein kinase CK2 IC50
T1 construct: purchased Millipore
Procedure: CK2 Kinase Assay was conducted using the protocol as described in Pierre F. et al; J. Med. Chem. 2011, 54, 635-654. The tested compounds in aqueous solution were added at a volume of 10 μL to a reaction mixture comprising 10 μL of assay dilution buffer (ADB; 20 mM MOPS, pH 7.2, 25 mM B-glycerol phosphate, 5 mM EGTA, 1 mM sodium orthovanadate, and 1 mM dithiothreitol), 10 μL of substrate peptide (RRRDDDSDDD, dissolved in ADB at a concentration of 1 mM), 10 μL of recombinant human CK2 (RRBB-holoenzyme, 25 ng dissolved in ADB; Millipore). Reactions were initiated by the addition of 10 μL of ATP solution (90% 75 mMMgCl2, 75 μM ATP (final ATP concentration: […]) dissolved in ADB; 10% [y-33P]ATP (stock 1mCi/100 μL; 3000 Ci/mmol (Perkin-Elmer) and maintained for 10 min at 30° C. The reactions were quenched with 100 μL of 0.75% phosphoric acid and then transferred to and filtered through a phosphor cellulose filter plate (Millipore). After washing each well five times with 0.75% phosphoric acid, the plate was dried under vacuum for 5 min and, following the addition of 15 μL of scintillation fluid to each well, the residual radioactivity was measured using a Wallac […] counter. The IC50 values were derived from eight concentrations of test inhibitors.

[4] = tested on: MCF7 (breast); experiment: In vitro cytotoxic activity (MTT) assay, MCF7; format: cell-based; conditions: Homo sapiens; MCF7 (breast) cells, 96 hours exposure; read-out: Cytotoxicity activity IC50 (50% inhibition of cell proliferation)
Procedure: as §1

[5] = tested on: MIAPaCa-2 (pancreas); experiment: In vitro cytotoxic activity (MTT) assay, MIAPaCa-2; format: cell-based; conditions: Homo sapiens, MIA PaCa-2; MIAPaCa-2 (pancreas) cells, 96 hours exposure; read-out: Cytotoxicity activity IC50 (50% inhibition of cell proliferation)
Procedure: as §1

[6] = tested on: PC3 (prostate); experiment: In vitro cytotoxic activity (MTT) assay, PC3; format: cell-based; conditions: Homo sapiens, Prostate cell; PC3 (prostate) cells, 96 hours exposure; read-out: Cytotoxicity activity IC50 (50% inhibition of cell proliferation)
Procedure: as §1

[7] = tested on: HL60 (leukemia); experiment: In vitro cytotoxic activity (MTT) assay, HL60; format: cell-based; conditions: Homo sapiens, HL-60; HL60 (leukemia) cells, 96 hours exposure; read-out: Cytotoxicity activity IC50 (50% inhibition of cell proliferation)
Procedure: as §1

[8] = tested on: HCT116 (colon); experiment: In vitro cytotoxic activity (MTT) assay, HCT116; format: cell-based; conditions: Homo sapiens, HCT-116; HCT116 (colon) cells, 96 hours exposure; read-out: Cytotoxicity activity IC50 (50% inhibition of cell proliferation)
Procedure: as §1

[9] = tested on: H1299 (lung); experiment: In vitro cytotoxic activity (MTT) assay, H1299; format: cell-based; conditions: Homo sapiens, NCI-H1299; H1299 (lung) cells, 96 hours exposure; read-out: Cytotoxicity activity IC50 (50% inhibition of cell proliferation)
Procedure: as §1

T1 sequence (P68400 whole entry): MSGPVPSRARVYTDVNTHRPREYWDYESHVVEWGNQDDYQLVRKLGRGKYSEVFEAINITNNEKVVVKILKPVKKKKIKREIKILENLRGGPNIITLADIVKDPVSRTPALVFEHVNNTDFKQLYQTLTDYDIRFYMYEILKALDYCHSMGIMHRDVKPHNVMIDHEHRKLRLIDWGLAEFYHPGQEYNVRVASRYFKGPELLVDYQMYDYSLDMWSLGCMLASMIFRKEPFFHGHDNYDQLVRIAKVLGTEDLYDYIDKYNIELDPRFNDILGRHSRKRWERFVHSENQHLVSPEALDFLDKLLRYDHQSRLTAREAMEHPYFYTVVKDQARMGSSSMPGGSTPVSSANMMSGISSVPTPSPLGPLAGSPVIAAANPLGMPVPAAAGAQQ
T1 sequence (P67870 whole entry partner): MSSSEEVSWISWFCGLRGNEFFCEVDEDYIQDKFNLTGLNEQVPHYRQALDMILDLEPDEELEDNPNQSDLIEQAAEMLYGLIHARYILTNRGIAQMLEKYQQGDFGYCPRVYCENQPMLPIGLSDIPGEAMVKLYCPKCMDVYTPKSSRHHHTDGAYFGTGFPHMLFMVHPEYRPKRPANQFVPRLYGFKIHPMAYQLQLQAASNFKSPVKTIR

IC50 [3]: 30 nM
SMILES: Clc1cccc(Nc2nc3c(nn4cnccc34)c3ccncc23)c1 [Compound 1, N-(3-chlorophenyl)pyrimido[1′,6′: 1,5]pyrazolo[4,3-c][2,7]naphthyridin-5-amine]
IC50 [1]: 4500 nM
IC50 [2]: 3600 nM
IC50 [4]: 5300 nM
IC50 [5]: 1100 nM
IC50 [6]: 1400 nM
IC50 [7]: 4000 nM
IC50 [8]: 1200 nM
IC50 [9]: 2300 nM
